This passage reports TGI results from PubChem BioAssay (NCI).

Test systems include XF 498 CNS; SNB-78 CNS; LXFL 529 NSCLC; RXF-631 renal; P388 leukemia; P388/ADR leukemia; DLD-1 colon; DMS 273 small cell lung; MDA-N; M19-MEL melanoma; SN12K1 renal; DMS 114 small cell lung.
Common to all, as to experiment: NCI tumour cell line growth inhibition, 48 h

SMILES strings stand for the structures.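 Method: 48-hour compound exposure of cells in 96-well plates, five concentrations, linear interpolation of endpoints. TGI: total growth inhibition.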

Consider `O=C(NC(c1ccccc1)C(O)C(=O)OCc1ccc2c(c1)C(=O)c1ccccc1C2=O)c1ccccc1` (configuration not stated), for which the TGI is 35.9 µM with XF 498 CNS; more than 92.4 µM in the assay on SNB-78 CNS; more than 100 µM with LXFL 529 NSCLC; more than 100 µM in the assay on RXF-631 renal; more than 100 µM with P388 leukemia; more than 100 µM in the assay on P388/ADR leukemia. Further, the TGI was more than 100 µM in the assay on DLD-1 colon; more than 100 µM in the assay with DMS 273 small cell lung; more than 100 µM with MDA-N; more than 100 µM in the assay with M19-MEL melanoma; 3.27 µM with SN12K1 renal; more than 100 µM with DMS 114 small cell lung.
